The subject of assay [1] is PAF-induced mortality. In words: PAF-induced mortality tests. In kind it is in vivo, albino mice. Particulars: 300 mg/kg i.p. one hour before PAF 20 μg/kg i.v., mice. How it is done:
Platelet-activating factor (PAF) is an acetylated alkyl phosphoglyceride whose release in the body, under various stimuli, causes circulatory-type reactions related mainly to increased capillary permeability, with consequent extravasation of blood, increased platelet aggregation and thrombosis, reduced coronary flow, release of inflammatory factors, lysosomal enzymes and superoxides.
When administered intravenously (20 μg/kg) to animals, PAF causes the death of the animals treated with it in a short space of time, i.e. approximately one hour, mainly as a result of cardiocirculatory collapse.
A series of tests was conducted using the method described by Young (Young J. N., Prostaglandins 30:545, 1985) and by Myers (Myers H., Br. J. Pharmacol., 79:595, 1983) in order to assess whether Ginkgo biloba extracts (whose anti-PAF activity is known) protect animals injected with PAF against death and whether the carnitines (particularly propionyl L-carnitine, whose vascular regulatory activity is known) are capable of increasing the protective effect against PAF.
The tests were conducted on albino mice with a mean weight of 25 g divided into various groups, the first of which served as control group and received intravenous injections of PAF at the dose of 20 μg/kg, while the other groups were administered intraperitoneal injections, one hour before to PAF administration, either of Ginkgo biloba extract, or of the various carnitines alone or in combination, or of Ginkgo biloba plus carnitines.

For assay [2], the system named is PAF-induced oedema of the rat paw. In words: PAF-induced inflammatory reaction tests (paw oedema, plethysmographic). It is filed as in vivo. Particulars: 300 mg/kg i.p. one hour before PAF 2 μg into rear paw, rats. How it is done: In these experiments, a solution containing PAF was injected into the paws of rats according to the method described by Burstein (Burstein S. H., J. Pharmacol. Exptl. Ther., 251:531, 1989).
As is known, PAF injected into the rat paw causes the release of numerous phlogogenic substances, including prostaglandins, which gives rise in a short time to the onset of marked oedema (Bonnet J., J. Agent Actions, 11:559, 1981).
Using the method described by Goldenberg (Goldenberg M. M., Prostaglandins, 28:271, 1984) and Silva (Silva P. M. R., Inflammation, 10:393, 1986), a solution of PAF at an overall dose of 2 μg was injected into the rear paws of rats, and the ensuing oedematous reaction was evaluated with a plethysmographic method according to the technique described by Ferreira (Ferreira S. H., J. Pharmacol., 127:83, 1979).
The tests were conducted in various groups of rats, one of which was a control group, while the others received intraperitoneal administrations, one hour before to PAF injection, of acetyl L-carnitine (300 mg/kg), or propionyl L-carnitine (300 mg/kg), or of a combination of L-carnitine (75 mg/kg), acetyl L-carnitine (75 mg/kg) and propionyl L-carnitine (75 mg/kg), or of a Ginkgo biloba extract (100 mg/kg), or of the Ginkgo biloba extract plus carnitines.

In assay [3] the test system is pitressin-induced coronary spasm. In words: Coronary spasm tests (pitressin). It is filed as in vivo, rat. The settings on record: oral, three days before pitressin i.v.; Ginkgo biloba extract 100 mg/kg, carnitines or carnitine mixture 300 mg/kg; number of rats. An excerpt: Enhancement of the activity of Ginkgo biloba when combined with carnitines was also found on evaluating the effects of the administration of these substances alone and in combination on pitressin-induced experimental coronary spasm.
As is known, intravenous injection of 1 v/kg of pitressin in the rat causes characteristic electrocardiographic abnormalities which are most noticeable in lead II as affecting the T wave (asphyxial T wave) due to the diminished myocardial oxygenation related to the reduced coronary flow caused by the pitressin-induced vascular spasm.
In these tests, before being injected with pitressin, the rats received oral administrations for three days consecutively of 100 mg/kg of Ginkgo biloba extracts, or of 300 mg/kg of carnitines alone or carnitine mixture, or of carnitine or carnitine mixture in combination with Ginkgo biloba.

Assay [4] has as its system collagen-induced platelet aggregation. In words: Platelet aggregation tests. Particulars: collagen 2.5 μg/ml, 10 minutes' incubation; for ED50 (platelet aggregation): human blood. In kind it is cell-based, human (healthy volunteers).
Description: In these tests, blood samples were taken from healthy volunteers with a platelet content of at least 300,000/mm^3. The method described by Born (Born J. V. R. J. Physiol., 26:25 1963) was used to induce platelet aggregation.
Platelet aggregation was induced by collagen (2.5 μg/ml) and measured both at the beginning and after 10 minutes' incubation with propionyl L-carnitine, acetyl L-carnitine, Ginkgo biloba extract or with these compounds in various combinations.
The test system of assay [5] is pheochromocytoma cells (PC-12). Briefly: Tests of H2O2 toxicity on pheochromocytoma cells (PC-12). It is filed as cell-based. The settings on record: 10^−8 M; PC-12, H2O2 30 minutes, 24 hours of observation; H2O2 alone approximately 38%.
Description: In these tests, a pheochromocytoma cell (PC-12) culture was used containing 3×10^5 M cells/ml which was submitted for 30 minutes to 0.1 g mM H2O2.
The subject of assay [6] is cerebral ischaemia induced by endothelin-1 (MCA occlusion). In words: Tests of protection against experimentally induced cerebral ischaemia (endothelin-1, MCA occlusion). It is filed as in vivo. The settings on record: rat; i.v. 5 minutes after endothelin-1; propionyl/acetyl L-carnitine 50 mg/kg, Ginkgo biloba 10 mg/kg; checked after 3 days. As to the method: Since a major responsible for causing damage following cerebral ischaemia is known to be the production of superoxides and free radicals (Litton S. A., Nature, 364:625, 1993), in these tests cerebral ischaemia was brought about by occluding the middle cerebral artery (MCA) of the rat according to the method described by Scharkey (Scharkey Y., Nature, 371:336, 1994) by injecting to the anaesthetized animal endothelin-1 (120 pml), for a duration of 3 minutes with a microcannula placed stereotactically in the pyriform cortex at the level of the middle cerebral artery (MCA).
The ischaemic area thus produced was checked after 3 days with transcardiac perfusion of paraformaldehyde solution (4% in PBS).
After removing the brain and placing it in a fixator containing 10% saccharose, cryostat sections were fixed in methyl violet and examined under the optical microscope.
The administration of propionyl L-carnitine (50 mg/kg), acetyl L-carnitine (50 mg/kg) and of a solution of Ginkgo biloba (10 mg/kg), or these compounds in combination, was performed intravenously 5 minutes following injection of endothelin-1.
The volume of the infarcted area was calculated according to the method described by Park (Park C., Anns. Neurol., 20:150, 1989).

The values below come from US6641849B1, “Composition for the prevention and/or treatment of circulatory disorders, comprising derivatives of L-carnitine and extracts of ginkgo biloba” (Sigma-Tau HealthScience S.p.A., priority 1999, dated 2003).

For `CC(=O)O[C@H](CC(=O)[O-])C[N+](C)(C)C` [Acetyl L-carnitine, acetyl L-carnitine], the “% mortality 1 h after PAF injection” value in assay [1] is recorded as 80/100. Also, in assay [2], the “% reduction of oedema” value came to 15%. In assay [3], the Rats not protected came out at 3, the Rats protected is recorded as 1 and the Rats weakly protected stood at 3. Also, in assay [4], the “reduction of platelet aggregation (in words)” value was “only to a slight extent” and the “ED50 (platelet aggregation)” value came out at 26.4 ± 0.34 µg. For the same compound, the “survival of the cells” value in assay [5] came to 55%. Moreover, in assay [6], the “magnitude of ischaemia (volume mm^3) due to MCA occlusion” value is on record as 21.6 ± 1.8 mm^3.

For the compound `C[N+](C)(C)C[C@H](O)CC(=O)[O-]` [L-carnitine], in assay [1], the “% mortality 1 h after PAF injection” value is recorded as 90/100. In addition, the “% reduction of oedema” value in assay [2] was 10%. Besides, in assay [3], the Rats not protected amounted to 3, the Rats protected is recorded as 0 and the Rats weakly protected is 1.

With `CCC(=O)O[C@H](CC(=O)[O-])C[N+](C)(C)C` [Propionyl L-carnitine, propionyl L-carnitine], the “% mortality 1 h after PAF injection” value in assay [1] is 80/100. Also, the “% reduction of oedema” value in assay [2] came out at 35%. Moreover, in assay [3], the Rats not protected amounted to 4, the Rats protected came to 2 and the Rats weakly protected is on record as 3. Moreover, in assay [4], the “reduction of platelet aggregation (in words)” value was “only to a slight extent” and the “ED50 (platelet aggregation)” value is 30.5 ± 0.41 µg. Moreover, the “survival of the cells” value in assay [5] was found to be 45%. Moreover, the “magnitude of ischaemia (volume mm^3) due to MCA occlusion” value in assay [6] worked out at 32.6 ± 2.4 mm^3.
